The test system of one experiment is HepG2 cell line. Description: Cytotoxicity assay (Cell Counting Kit-8). The experiment is classed as cell-based, human. To be noted: Homo sapiens, HepG2; Table S1; means ± SEM; read-out: IC50 (μM) HepG2. As for the experimental part:
Cytotoxicity against human cells was evaluated using the human liver carcinoma HepG2 cell line. HepG2 cells were cultured in D-MED supplemented with 4 mM L-glutamine and 10% fetal bovine serum (FBS) in a 75-cm^2 flask (Violamo) at 37°C. For the cytotoxicity assay, HepG2 cells in semiconfluent state were detached from the flask by incubating the cells with 5 mL D-MEM containing 0.25% trypsin-EDTA. After detachment, HepG2 cells were resuspended in D-MEM-supplemented L-glutamine and FBS, and cell viability was evaluated by incubating cells with 0.4% Trypan blue on a hemocytometer. An approximately 50-μL suspension containing 3,000 cells was dispensed into each well on a 384-well clear-bottom plate using a Multidrop Combi dispenser. Compounds dissolved in DMSO had been dispensed into wells to yield final concentrations of 100, 20, 4, 0.8, and 0.2 μM before cells were added. After cells were added to the plates, they were cultured at 37°C under 5% CO2. After 48 h cultivation, 5 μL of Cell Counting Kit-8 (Dojindo, Japan) was added, and the plates were further incubated for 2 h to assess cell growth and survival.
A general note: Formazan colour is commonly taken as a measure of viable cells.

The subject of experiment [1] is P. falciparum drug-resistant Dd2 strain. Description: Erythrocytic-stage parasite growth inhibition, diaphorase-coupled LDH assay, Dd2. Format: cell-based, Plasmodium falciparum. The note with it: Plasmodium falciparum, DD2; Table S1; means ± SEM; read-out: IC50 (μM) Pf cell Dd2.
Experiment [2] has as its system P. falciparum drug-sensitive 3D7 strain. Description: Erythrocytic-stage parasite growth inhibition, diaphorase-coupled LDH assay, 3D7. Format: cell-based, Plasmodium falciparum. To be noted: Plasmodium falciparum, 3D7; Table S1; means ± SEM; read-out: IC50 (μM) Pf cell 3D7.
Another experiment deals with T1, HsCOASY (Homo sapiens, UniProt Q13057).
T1 construct: His tag (pCold1 vector); made in house; host or cells: Escherichia coli BL21Star (DE3)
T1 sequence (Q13057 1-564): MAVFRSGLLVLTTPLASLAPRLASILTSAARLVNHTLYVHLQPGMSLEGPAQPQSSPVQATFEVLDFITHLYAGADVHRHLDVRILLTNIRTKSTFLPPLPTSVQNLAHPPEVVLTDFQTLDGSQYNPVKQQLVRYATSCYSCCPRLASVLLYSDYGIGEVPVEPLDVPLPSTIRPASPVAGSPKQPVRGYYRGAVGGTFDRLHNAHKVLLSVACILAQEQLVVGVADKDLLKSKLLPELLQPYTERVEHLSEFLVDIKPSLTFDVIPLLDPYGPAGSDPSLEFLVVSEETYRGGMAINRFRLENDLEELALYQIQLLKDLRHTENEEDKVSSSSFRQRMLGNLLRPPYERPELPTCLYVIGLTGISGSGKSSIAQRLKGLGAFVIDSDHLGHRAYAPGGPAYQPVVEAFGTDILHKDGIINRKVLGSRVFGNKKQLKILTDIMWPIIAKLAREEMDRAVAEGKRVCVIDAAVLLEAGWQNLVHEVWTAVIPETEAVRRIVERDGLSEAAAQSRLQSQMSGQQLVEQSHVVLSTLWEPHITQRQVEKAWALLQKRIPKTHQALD
As to the kind of experiment: HsCOASY counterassay. The experiment is classed as biochemical. To be noted: reciprocal plot analysis. The protocol:
PfDPCK and HsCOASY activity was measured by quantifying ADP produced in the reaction by a coupling assay using the ADP Hunter Plus assay kit (DiscoverX, USA) according to the manufacturer's instructions. Briefly, enzymatic reactions were carried out in a 20-μL mixture of assay buffer containing 15 mM HEPES, 20 mM NaCl, 1 mM EGTA, 0.02% Tween 20, 10 mM MgCl2, 0.1% bovine gamma globulin, 50 ng of recombinant PfDPCK or HsCOASY, 4 to 256 μM dephospho-CoA, and 5 to 300 μM ATP on a black microplate. All reactions were performed for 2 h, reagents A and B were added, and they were then reincubated for 60 min at 30°C. After reactions were terminated by addition of ADP Hunter Stop solution, the fluorescent signal was measured using SpectraMax Paradigm (Molecular Devices, CA, USA) at excitation and emission wavelengths of 530 and 590 nm, respectively. The kinetic parameters were calculated using the nonlinear regression function using the single saturating concentrations of the substrates by the GraphPad Prism software (GraphPad Software Inc., San Diego, CA). The experiments were repeated three times in triplicate using proteins purified from independent cultures. […]
The primary hits were reassayed in quadruplicate (n = 4) as in the primary screening. We next tested the confirmed secondary hits to exclude false positives that inhibit coupled fluorescence assay, but not PfDPCK. […]

For the compound `CC(C)(C)c1cc(C(=O)Cn2c(NCCO)nc3ccccc32)cc(C(C)(C)C)c1O` [Compound A-15], the half-maximal inhibitory concentration (IC50) (commonly the concentration that gives 50% inhibition) with HepG2 cell line amounted to 29.9 ± 3.61 µM; in experiment [1], 9.26 ± 0.26 µM; in experiment [2], 9.78 ± 0.23 µM. For the same compound, at HsCOASY, the “inhibition of HsCOASY” value was “inhibits PfDPCK, but not HsCOASY”.

For the origin of these results see article PMC9664868, “Dephospho-Coenzyme A Kinase Is an Exploitable Drug Target against Plasmodium falciparum: Identification of Selective Inhibitors by High-Throughput Screening of a Large Chemical Compound Library” (Antimicrobial Agents and Chemotherapy, 2022).
